Results on five molecules are retold here after patent US4473581A (priority 1979, dated 1984).

Where a name gives a salt, the structure may show the parent alone.

The term LD50 denotes the dose at which mortality reaches 50%.

For series [1] the following is noted: background statement on known inducers; cited from earlier work.
Series [2] has as its system Ehrlich ascites tumor cells. The experiment in a line: Anti-tumor activity of peritoneal exudate cells from Ge treated mice on Ehrlich ascites tumor bearing mice. It counts as in vivo, DDI mice. Conditions: peritoneal exudate cells from mice given 300 mg/kg Ge, six days i.p. (FIG. 3). The procedure:
An anti-tumor activity test of peritoneal exudate cells obtained from mice treated with Ge in a dosage amount of 300 mg/kg was conducted on Ehrlich ascites tumor bearing mice.
1×10^5 cells/mouse of Ehrlich ascites tumor cells were transplanted into the peritoneal cavity of DDI mice. Twenty-four hours later, these mice were intraperitoneally supplied with 5×10^3 peritoneal exudate cells obtained from mice treated with Ge once daily for six consecutive days. Peritoneal exudate cells obtained from saline injected mice were likewise supplied to tumor bearing mice as a control.

In another series the test system is FM-3A cells. Kind of series: Growth inhibition of FM-3A tumor cells co-cultured with macrophages from Ge treated mice. Type of series: cell-based. Conditions: 48 hours. The procedure: It is known that interferon has the ability to convert a standing macrophage into a tumoricidal macrophage, deemed activated macrophage (A-M.phi.), either in vivo or in vitro. Since the Ge induced the formation of immune interferon in vivo, it was expected that A-M: would be induced in the Ge treated animal.
Peritoneal exudate cells obtained from mice 72 hours after treatment with a 300 mg/kg dose of Ge were cultured for 20 minutes in a petri dish utilizing RPMI-1640 medium supplemented with 10% fetal calf serum. Cells adhering to the petri dish, obtained by washing with the same culture medium, were separately co-cultured with FM-3A cells as the target tumor cells, in a ratio of 10:1. FM-3A cells were cultured singly, or with macrophages derived from normal mice, as the control. In each run, the growth of FM-3A cells was monitored. A determination of the number of FM-3A cells was carried out per the dye exclusion test using Trypan-Blue. […] Thus, it is apparent that Ge induces the formation of A-M: in live mice.

For series [3], the system named is vesicular stomatitis virus (VSV) in L-1D cells. It counts as cell-based.
For the next series, the system named is interferon. Kind of series: Interferon induction in healthy volunteers. It counts as in vivo. Conditions: human. On the procedure:
Capsules of Ge were orally administered to eight healthy volunteers, 21 to 23 years old. The dose administered to one group (two men and two women) was 75 mg/kg and that administrated to the other group (two men and two women) was 25 mg/kg. Serum samples were collected at predetermined intervals, the interferon titers were determined, and the results reflected in FIGS. 4 and 5 were obtained. […] The reported results thus evidence that Ge induces A-M.phi. in humans as well as in mice.

Series [4] relates to vesicular stomatitis virus (VSV) in L-1D cells. It counts as cell-based. The source holds these as a separate data set.
Series [5] deals with vesicular stomatitis virus (VSV) in human embryonic lung cells. Type of series: cell-based. Conditions: human serum, 75 mg/kg oral.
The test system of a further series is MEP-II tumor cells. Kind of series: Anti-tumor effect of oral Ge in MEP-II tumor bearing mice. Type of series: in vivo, DDI mice. The note with it: 100 and 300 mg/kg oral, once daily, seven days. The procedure: 4×10^3 MEP-II tumor cells were transplanted intraperitoneally in DDI mice as described above. Twenty-four hours later, Ge was orally administered, once daily for seven consecutive days at a daily dosage of 100 or 300 mg/kg to ascertain any anti-tumor effect. In a control group, 0.2 ml of physiological saline solution was orally administered, also once daily for seven days.

A short description of series [6]: Acute toxicity (LD50) in rats. Conditions: rat, in vivo.
Series [7] is described as follows: Acute toxicity (LD50) in mice. The note with it: mouse, in vivo.
In another series the test system is dogs. Kind of series: Chronic toxicity in dogs, intravenous, six months. Conditions: 500 mg/kg per day.
For the next series, the system named is rats. The experiment in a line: Chronic toxicity test in rats, oral, six months. Conditions: six months, 30, 300 or 3000 mg/kg per day.
The mark [8] stands for this setting: intravenous injection, larger than any physically practicable maximum amount.

On to `CCN(CC)CCOc1ccc2c(c1)C(=O)c1cc(OCCN(CC)CC)ccc1-2` [tilorone hydrochloride], for which, in series [1], the adverse side effects result is reported as “one or more adverse side effects”.
Consider `O=C(O)C[CH2][Ge](=[O])[O][Ge](=[O])[CH2]CC(=O)O` [Ge], for which, in series [2], the “anti-tumor activity of macrophage activated by Ge treatment (in words)” value was “marked anti-tumor activity”. The “growth of FM-3A cells (in words)” value with FM-3A cells is “prominently inhibited”. Further, the “viral infection inhibitory activity in serum” value in series [3] (mice, 300 mg/kg oral, 25 hours after administration (FIG. 1)) is on record as “viral infection inhibitory activity was detected”. Besides, the “dose dependency of viral infection inhibitory activity” value in series [3] (mice, oral, varied doses (FIG. 2)) is “dose dependent”. In addition, the “species specificity of induced viral infection inhibitory factor” value in [3] (mouse and human sera compared on L-1D, human embryonic lung and chicken embryonic cells) was “species specific”. Also, the “antiviral activity of induced agent, L-1D cells (in words)” value in [3] (mouse serum, 300 mg/kg oral) is listed as “displayed resistance to viral infection only in the L-1D cells”. Further, the production of interferon entry was “production of interferon was observed, although the level was lower” with interferon (25 mg/kg oral capsules (FIGS. 4 and 5)); “significant production of interferon was observed in each case” in the series with interferon (75 mg/kg oral capsules (FIGS. 4 and 5)). Besides, in series [4] (mouse serum, 56° C. one hour, acidification to pH 2.0), the “stability of induced factor to heat and acid (in words)” value is “unstable to thermal treatment at 56 °C for one hour and also to acidification to pH 2.0”. Moreover, the “trypsin lability of induced factor (in words)” value in series [4] (mouse serum, trypsin 37° C., 3 hours) was “trypsin labile”. Further, in series [4] (mouse serum, from thermal and acid treatments), the “type of interferon induced” value is recorded as “immune (type II) interferon”. In series [5], the “antiviral activity of induced agent, human cells (in words)” value is reported as “displayed antiviral activity only in human cells”. The “anti-tumor activity (in words)” value with MEP-II tumor cells is recorded as “both dosage amounts of Ge exhibited anti-tumor activity”.
As to `CCCCCCCCCCCCCCCCCCN(CCCCCCCCCCCCCCCCCC)CCCN(CCO)CCO` [CP-20961], the adverse side effects entry in [1] is “one or more adverse side effects”.
For the molecule “double-stranded complex polyriboinosinic acid and polyribocytidylic acid [Poly 1-C, reference compound]”, in series [4] (pH 2), the “Interferon Titer” value is reported as 640 and the “Remaining amount of titer” value came out at 100%.
Regarding `O=C(O)C[CH2][Ge](=[O])[O][Ge](=[O])[CH2]CC(=O)O` [carboxyethyl germanium sesquioxide], the LD50 in [6] (setting [8]) was above 1000 mg/kg; in [6] (oral) it was above 10000 mg/kg; in [7] (setting [8]), above 1000 mg/kg; in [7] (oral), above 6300 mg/kg. Besides, the toxicity result with dogs is “no toxicity was found”. The “death in chronic toxicity test” value with rats was “no rat died”. For the same molecule, the “pathological disorder in chronic toxicity test” value with rats is “no pathological disorder was observed”.
